pIC50: −log10 of the molar value. Read-outs that look alike come from different tables or passages of the source.
Columns and labels:
collagenase (MMP-1) = biological target: T1, collagenase (MMP-1) (Homo sapiens, UniProt P03956); assay: MMP-1 enzyme inhibition assay (coumarin-labelled peptide substrate McaPLGLDpaAR); format: biochemical; settings: read-out: MMP-1 IC50
T1 sequence (P03956 100-469): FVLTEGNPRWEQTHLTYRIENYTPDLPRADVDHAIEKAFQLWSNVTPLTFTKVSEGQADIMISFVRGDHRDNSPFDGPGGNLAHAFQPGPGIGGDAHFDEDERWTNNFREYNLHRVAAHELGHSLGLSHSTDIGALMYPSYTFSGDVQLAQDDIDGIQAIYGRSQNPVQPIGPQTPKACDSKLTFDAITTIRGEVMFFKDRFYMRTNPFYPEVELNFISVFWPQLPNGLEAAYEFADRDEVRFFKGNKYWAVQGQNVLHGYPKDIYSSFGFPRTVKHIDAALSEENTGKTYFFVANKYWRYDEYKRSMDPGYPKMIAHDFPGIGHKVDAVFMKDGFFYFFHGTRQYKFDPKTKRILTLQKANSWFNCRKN
Description: (§1) Stock solutions were made up as follows: Assay Butter: 100 mM Tris-HCl pH 7.6 is containing 100 mM NaCl, 10 mM CaCl2, and 0.05% Brij 35.
(§2) Substrate: 0.4 mM McaPLGLDpaAR (from Bachem) (0.437 mg/ml) stock solution in 100% DMSO (stored at −20° C.). Dilute to 8 μM in assay butter.
(§3) Enzyme: Recombinant human 92 kDa gelatinase (MMP-9; APMA (4-aminophenyl mercuric acetate)-activated if necessary) appropriately diluted in assay butter.
(§4) Test Compounds were prepared initially as 10 mM compound solution in 100% DMSO, diluted to 1 mM in 100% DMSO, then serially diluted 3-fold in 100% DMSO across columns 1-10 of a 96-well microtitre plate Assay concentration range, 100 μM (column 1) to 5.1 nM (column 10).
(§5) The assay was performed in a total volume of 100 μL per well in 96-well microfilm plates. Activated enzyme (20 μL) was added to the wells followed by 20 μL of assay butter. Appropriate concentrations of test compounds dissolved in 10 μL of DMSO were then added followed by 50 μL of McaPLGLDpaAR (8 μM, prepared by dilution of DMSO stock in assay butter). For each as say ten concentrations of test compound were examined in duplicate. Control wells lack either enzyme or test compound. The reactions were incubated at 37° C. for 2 hours. The fluorescence at 405 nm was measured immediately with an SLT Fluostar fluorometer (SL T Labinstruments GmbH, Grödig, Austria) using 320 nm excitation, without stopping the reaction.
(§6) The effect of the test compound was determined from the dose response curve generated by the 10 duplicate concentrations of inhibitor. The IC50 (the concentration of compound required to give a 50% decrease in enzyme activity) was obtained by fitting data to the equation, Y=a+((b−a)/(1+(c/X)^d)). (Y=inhibition achieved for a particular dose; X=the dose in nM; a=minimum y or zero % inhibition; b=maximum y or 100% inhibition; c=is the IC50; d=is the slope). The result was rounded to one significant figure.
(§7) Compounds of the invention were tested for inhibitory activity against collagenase (MMP-1) in an assay using a coumarin-labelled peptide substrate, (7-methoxycoumarin-4-yl)acetyl-Pro-Leu-Gly-Leu-(3-[2,4-dinitrophenyl]-L-2,3diaminopropionyl)-Ala-Arg-NH2 (Mca PLGLDpaAR) (Knight et al, 1992, above). The protocol for this assay was as described for the MMP-9 assay above.

gelatinase A (MMP-2) = biological target: T2, gelatinase A (MMP-2) (Homo sapiens, UniProt P08253); assay: MMP-2 enzyme inhibition assay (coumarin-labelled peptide substrate McaPLGLDpaAR); format: biochemical; settings: read-out: MMP-2 IC50
T2 sequence (P08253 110-660): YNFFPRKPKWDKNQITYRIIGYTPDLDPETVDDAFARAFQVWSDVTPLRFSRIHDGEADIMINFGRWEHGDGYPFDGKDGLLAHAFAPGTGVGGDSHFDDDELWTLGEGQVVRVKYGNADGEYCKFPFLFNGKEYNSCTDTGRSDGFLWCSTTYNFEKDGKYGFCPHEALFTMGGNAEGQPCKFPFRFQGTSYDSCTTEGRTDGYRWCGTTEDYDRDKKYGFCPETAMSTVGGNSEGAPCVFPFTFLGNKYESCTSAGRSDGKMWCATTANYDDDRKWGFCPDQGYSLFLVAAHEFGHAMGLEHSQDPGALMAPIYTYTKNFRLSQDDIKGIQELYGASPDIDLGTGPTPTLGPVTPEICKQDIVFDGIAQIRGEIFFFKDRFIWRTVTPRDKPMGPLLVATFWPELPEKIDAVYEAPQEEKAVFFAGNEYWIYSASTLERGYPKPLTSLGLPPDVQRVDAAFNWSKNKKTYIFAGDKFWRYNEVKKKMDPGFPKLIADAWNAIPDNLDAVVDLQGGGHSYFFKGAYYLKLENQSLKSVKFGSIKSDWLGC
Description: as §1, §2, §3, §4, §5, §6
as §7, with “gelatinase A (MMP-2)” for “collagenase (MMP-1)”

[1] = biological target: 92 kDa gelatinase (MMP-9) (Homo sapiens, UniProt P14780); assay: MMP-9 enzyme inhibition assay (coumarin-labeled peptide substrate McaPLGLDpaAR); format: biochemical; settings: read-out: MMP-9 IC50
Sequence of 92 kDa gelatinase (MMP-9) (P14780 107-707 limits assumed): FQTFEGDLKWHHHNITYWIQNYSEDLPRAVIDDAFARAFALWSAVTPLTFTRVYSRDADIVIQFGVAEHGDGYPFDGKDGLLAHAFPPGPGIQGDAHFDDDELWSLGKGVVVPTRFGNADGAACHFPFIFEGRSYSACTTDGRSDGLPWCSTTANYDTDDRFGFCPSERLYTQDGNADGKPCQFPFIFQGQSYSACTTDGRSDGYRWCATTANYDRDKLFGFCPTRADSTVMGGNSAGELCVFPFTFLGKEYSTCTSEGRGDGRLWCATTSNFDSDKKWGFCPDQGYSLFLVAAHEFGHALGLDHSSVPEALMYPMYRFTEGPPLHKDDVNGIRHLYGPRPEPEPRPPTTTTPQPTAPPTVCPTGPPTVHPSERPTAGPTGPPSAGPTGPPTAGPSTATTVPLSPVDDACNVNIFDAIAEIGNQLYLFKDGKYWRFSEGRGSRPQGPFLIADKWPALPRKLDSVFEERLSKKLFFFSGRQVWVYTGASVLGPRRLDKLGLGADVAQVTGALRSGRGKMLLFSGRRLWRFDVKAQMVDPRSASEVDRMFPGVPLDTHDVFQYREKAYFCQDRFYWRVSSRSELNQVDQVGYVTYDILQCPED
Description: Compounds of the invention were tested for inhibitory activity against 92 kDa gelatinase (MMP-9) in an assay using a coumarin-labeled peptide substrate, (7-methoxycoumarin-4-yl)acetyl-Pro-Leu-Gly-Leu-(3-[2,4-dinitrophenyl]-L-2,3diaminopropionyl)-Ala-Arg-NH2 (McaPLGLDpaAR) (Knight et al, FEBS Lett. 1992; 263-266).
as §1, §2, §3, §4, §5, §6

metalloelastase (MMP-12) = metalloelastase (MMP-12) (Homo sapiens, UniProt P39900); assay: MMP-12 enzyme inhibition assay (coumarin-labelled peptide substrate McaPLGLDpaAR); format: biochemical; settings: read-out: MMP-12 IC50
Sequence of metalloelastase (MMP-12) (P39900 106-470): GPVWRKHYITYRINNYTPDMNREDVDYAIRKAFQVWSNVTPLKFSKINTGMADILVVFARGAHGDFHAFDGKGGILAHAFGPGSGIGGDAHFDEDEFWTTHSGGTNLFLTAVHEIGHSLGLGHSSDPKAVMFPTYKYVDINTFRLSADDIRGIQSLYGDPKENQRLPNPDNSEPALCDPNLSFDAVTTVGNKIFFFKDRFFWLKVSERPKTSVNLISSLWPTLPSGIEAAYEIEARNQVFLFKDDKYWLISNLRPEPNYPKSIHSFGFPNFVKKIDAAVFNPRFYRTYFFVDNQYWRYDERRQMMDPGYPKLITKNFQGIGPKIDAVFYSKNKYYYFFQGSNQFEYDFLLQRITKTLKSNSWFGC
Description: as §1, §2, §3, §4, §5, §6
Compounds of the invention were tested for inhibitory activity against metalloelastase (MMP-12) in an assay using a coumarin-labelled peptide substrate, (7-methoxycoumarin-4-yl)acetyl-Pro-Leu-Gly-Leu-(3-[2,4-dinitrophenyl]-L-2,3-diaminopropionyl)-Ala-Arg-NH2 (McaPLGLDpaAR) (Knight et al, 1992, above). The protocol for this assay was as described for the MMP-9 assay above.

[2] = system: IL-2-induced peritoneal recruitment of lymphocytes; assay: IL-2-induced peritoneal recruitment of lymphocytes; format: in vivo, C3H/HEN mice; settings: mice, dose 1 mg/kg po, 15 min prior to IL-2; cells collected 24 h after IL-2; Table 4, Formula (VI)
Description: Administration of IL-2 intraperitoneally causes migration of lymphocytes into the intraperitoneal cavity. This is a model for the cellular migration that occurs during inflammation.
C3H/HEN mice (Elevage Janvier, France) were intraperitoneally injected with IL-2 (Serono Pharmaceutical Research Institute, 20 μg/kg, in saline).
Compounds of the invention were suspended in 0.5% carboxymethylcellulose (CMC)/0.25% tween-20 and were administered by s.c. or p.o. route (10 ml/kg) 15 min prior to administration of IL-2.
Twenty-four hours after administration of IL-2, peritoneal white blood cells were collected by 3 successive lavages of the peritoneal cavity with 5 ml phosphate buffered saline (PBS)-1 mM EDTA (+4° C.). The suspension was centrifuged (1700 g×10 min at +4° C.). The resulting pellet was suspended in 1 ml PBS-1 mM EDTA.
Lymphocytes were identified and counted using a Beckman/Coulter counter.
The animals were divided into 6 groups (6 mice each group):
Group 1: (baseline) received 0.5% CMC/0.25% tween-20 (vehicle of compound of the invention) and saline (vehicle of IL-2);
Group 2: (control IL-2) received 0.5% CMC/0.25% tween-20 and injection of IL-2;
Group 3: Experimental group (Compound of the invention Dose 1) received a compound of the invention and injection of IL-2;
Group 4: Experimental group (Compound of the invention Dose 2) received a compound of the invention and injection of IL-2;
Group 5: Experimental group (Compound of the invention Dose 3) received a compound of the invention and injection of IL-2;
Group 6: Reference group received reference compound dexamethasone and injection of IL-2.
Inhibition of lymphocyte recruitment was calculated as follows:
Where Ly 1=Number of lymphocytes in group 1 (E3/μl), Ly 2=Number of lymphocytes in group 2 (E3/μl), Ly X=Number of lymphocytes in group X (3-5) (E3/μl).

[3] = Table 2, compounds of Formula (VI)
[4] = Table 1, compounds of Formula (I)

CCOc1ccc(CCC[C@@H](C(=O)N2CCC(Nc3ccc(O)cc3)CC2)[C@H](O)C(=O)NO)cc1 [Example 46, (2S,3R)-6-(4-ethoxyphenyl)-N,2-dihydroxy-3-({4-[(4-hydroxyphenyl)amino]piperidin-1-yl}carbonyl)hexanamide]
pIC50 (collagenase (MMP-1); [3]): < 5.30
pIC50 (gelatinase A (MMP-2); [3]): 6.75
pIC50 [1, 3]: 6.88
pIC50 (metalloelastase (MMP-12); [3]): 7.47

CC(C)C[C@H](C(=O)N1CCN(c2noc(-c3ccccc3)n2)CC1)[C@@H](O)C(=O)NO [Example 56, (2R,3S)-N,2-dihydroxy-5-methyl-3-{[4-(5-phenyl-1,2,4-oxadiazol-3-yl)piperazin-1-yl]-carbonyl}hexanamide]
pIC50 (collagenase (MMP-1); [4]): < 5.30
pIC50 (gelatinase A (MMP-2); [4]): 8.32
pIC50 [1, 4]: 7.39
pIC50 (metalloelastase (MMP-12); [4]): 8.22

CCOc1ccc(CCC[C@@H](C(=O)N2C[C@@H]3C[C@H]2CN3c2ccc(F)cc2)[C@H](O)C(=O)NO)cc1 [Example 47, (2S,3R)-6-(4-ethoxyphenyl)-3-{[(1S,4S)-5-(4-fluorophenyl)-2,5-diazabicyclo[2.2.1]hept-2-yl]carbonyl}-N,2-dihydroxyhexanamide]
% inhibition of IL-2-induced peritoneal recruitment of lymphocytes [2]: 41%

COc1ccc(N2CCN(C(=O)[C@@H](CC(C)C)[C@@H](O)C(=O)NO)CC2)cc1 [Example 14, (2R,3S)-N,2-dihydroxy-3-{[4-(4-methoxyphenyl)piperazin-1-yl]carbonyl}-5-methylhexanamide]
pIC50 (collagenase (MMP-1); [4]): < 5.30
pIC50 (gelatinase A (MMP-2); [4]): 7.05
pIC50 [1, 4]: 6.23
pIC50 (metalloelastase (MMP-12); [4]): 8.40

C[C@@H]1CN(c2ccc(OC(F)(F)F)cc2)CCN1C(=O)[C@@H](CC1CCCC1)[C@H](O)C(=O)NO [Example 91, (2S,3S)-3-(cyclopentylmethyl)-N,2-dihydroxy-4-{(2R)-2-methyl-4-[4-(trifluoromethoxy)phenyl]piperazin-1-yl}-4-oxobutanamide]
pIC50 (collagenase (MMP-1); [4]): 5.94
pIC50 (gelatinase A (MMP-2); [4]): 8.52
pIC50 [1, 4]: 7.31
pIC50 (metalloelastase (MMP-12); [4]): > 9.00

CCOc1ccc(CCCC(C(=O)N2CCN(c3ccccc3F)C[C@H]2C)[C@H](O)C(=O)NO)cc1 (mixture of isomers) [Example 9, (2S,3S)-6-(4-ethoxyphenyl)-3-{[(2R)-4-(2-fluorophenyl)-2-methylpiperazin-1-yl]carbonyl}-N,2-dihydroxyhexanamide]
pIC50 (collagenase (MMP-1); [4]): < 5.30
pIC50 (gelatinase A (MMP-2); [4]): 6.87
pIC50 [1, 4]: 6.63
pIC50 (metalloelastase (MMP-12); [4]): 7.48

CC(C)C[C@H](C(=O)N1CCN(c2ccccn2)CC1)[C@H](O)C(=O)NO [Example 1, (2S,3S)-N,2-dihydroxy-5-methyl-3-{[4-(2-pyridinyl)-1-piperazinyl]carbonyl}hexanamide]
pIC50 (collagenase (MMP-1); [4]): 6.38
pIC50 (gelatinase A (MMP-2); [4]): 8.52
pIC50 [1, 4]: 8.30
pIC50 (metalloelastase (MMP-12); [4]): 8.40

O=C(NO)[C@H](O)[C@H](CCOCc1ccccc1)C(=O)N1CCN(c2ccc(-c3ccccc3)cc2)CC1 [Example 58, 3-[(4-biphenyl-4-ylpiperazin-1-yl)carbonyl]-3,4-dideoxy-1-(hydroxyamino)-5-O-(phenylmethyl)-L-threo-pentose]
pIC50 (collagenase (MMP-1); [4]): < 5.30
pIC50 (gelatinase A (MMP-2); [4]): 7.42
pIC50 [1, 4]: 6.71
pIC50 (metalloelastase (MMP-12); [4]): 8.15

CC(C)C[C@H](C(=O)N1CCN(c2nc(-c3ccccc3)ns2)CC1)[C@H](O)C(=O)NO [Example 2, (2S,3S)-N,2-dihydroxy-5-methyl-3-{[4-(3-phenyl-1,2,4-thiadiazol-5-yl)-1-piperazinyl]carbonyl}hexanamide]
pIC50 (collagenase (MMP-1); [4]): 6.06
pIC50 (gelatinase A (MMP-2); [4]): 7.77
pIC50 [1, 4]: 8.15
pIC50 (metalloelastase (MMP-12); [4]): 6.99

CCOc1ccc(CCC[C@@H](C(=O)N2CCC(Oc3ccccn3)CC2)[C@H](O)C(=O)NO)cc1 [Example 22]
pIC50 (collagenase (MMP-1); [3]): < 5.30
pIC50 (gelatinase A (MMP-2); [3]): 7.33
pIC50 [1, 3]: 7.35
pIC50 (metalloelastase (MMP-12); [3]): 7.77

CC(C)C[C@H](C(=O)N1CCN(c2cc(C(F)(F)F)ccn2)C[C@H]1C)[C@H](O)C(=O)NO [Example 3, (2S,3S)-N,2-dihydroxy-5-methyl-3-({(2R)-2-methyl-4-[4-(trifluoromethyl)pyridin-2-yl]piperazin-1-yl}carbonyl)hexanamide]
pIC50 (collagenase (MMP-1); [4]): < 5.30
pIC50 (gelatinase A (MMP-2); [4]): 7.38
pIC50 [1, 4]: 6.55
pIC50 (metalloelastase (MMP-12); [4]): 7.51
